Source: patent publication US20240299553A1, “INDOCARBOCYANINE LIPID DERIVATIVES FOR IN VIVO CARGO DELIVERY” (priority 2021, published 2024)

Tests used:
[1] = tested on: 4T1 syngeneic orthotopic breast carcinoma; assay: Confocal microscopy of 4T1 tumor slices after i.v. injection of dual-labeled liposomes; assay type: in vivo, mice; conditions: 24 h post-injection; EPC/DSPE-PEG2000 liposomes, 0.2 mole % DiI and Cy5-DSPE, i.v.
Procedure: Lipids at the following molar ratios: HSPC/Chol/DSPE-PEG2000 (57/38/5) or EPC/DSPE-PEG2000 (95:5) with addition of 0.2% ICL and/or 0.2% FPL were mixed and dried under a nitrogen stream. The dry lipid cake was resuspended in PBS for a total lipid concentration of 20 mM, then incubated at 60° C. for 30 minutes. The solution was then vortexed for 2 minutes and bath sonicated. Liposomes were extruded by a syringe extruder (Avestin, Ottawa, Canada) through Whatman Nucleopore Track-Etch Membranes (200 nm pore size, 15 times). HSPC-based liposomes were extruded at 60° C., EPC-based liposomes were extruded at room temperature. Size and zeta potential were measured at room temperature in the presence of 1% phosphate-buffered saline using Zetasizer Nano (Malvern, UK). Liposomes were stored at 4° C. at a final concentration of 10 mM (total lipid) for a maximum period of 8 weeks before use.
4T1 cell line was purchased from the ATCC and verified using a sequencing core. GL261 cells were obtained from the National Cancer Institute (NCI), and CT2A cells were a gift from Dr. Tom Seyfried (Boston College). LY2 cells were from Dr. Sana Karam, University of Colorado Anschutz Medical campus. Cells were grown at 37° C. in RPMI 1640 medium containing 10% heat-inactivated fetal bovine serum, 10 mM HEPES, 100 U/ml penicillin, and […] streptomycin (all from Corning Inc. New York, NY, USA). BALB/c mice were bred in-house. Mice of 8-10 weeks of age (females) were implanted with 0.5×10^6 cells into the mammary fat pad (4T1) or subcutaneously in the jaw region (LY2) and used for experiments 1 week later when tumors reached ˜200-300 mm^3. For brain tumors, C57BL/6 mice (6-8 weeks old) were implanted with a total 1×10^5 GL261 or CT-2A cells per animal using an established protocol. To determine the distribution of liposomes in tumors and organs, liposomes were injected with 50 μl of 10 mM total lipid intravenously. Blood was collected via periorbital plexus using heparin glass capillaries, and the plasma was separated by centrifugation at 500 g for 5 min. In some experiments, mice were preinjected before dissection with 50 μl of FITC-tomato lectin (1 mg/ml) and 50 μl Hoechst 33324 (2 mg/ml) to visualize the vasculature and the nuclei. Mice were sacrificed with carbon dioxide, followed by cardiac perfusion with PBS through the left ventricle.
Nikon Eclipse AR1HD inverted confocal microscope with 405 nm, 488 nm, 561 nm, and 640 nm excitation lasers and corresponding emission filters was used. For high magnification imaging, liposomes were diluted 1:200 in PBS, mixed with glycerol at 1:1 ratio and 2 μl were placed on slide. For liposomes in plasma, the samples were diluted 1:20 and mixed with glycerol. The preparations in glycerol were spread under a coverslip and imaged under Apo60 or Apo100 Oil objective at 2048×2048 resolution. For tumor imaging, tumors or whole brains were frozen on dry ice and sliced with a blade into 1-2 mm thick slices. The slices were placed on a glass slide and imaged using Plan Apo 10 objective. Channels' voltage and laser intensity were adjusted using the dual labeled liposomes placed on a slide and imaged under the same magnification. These parameters were calibrated before each imaging session using the batch of liposomes used in that experiment. For quantification, multiple random image areas from different slices of the tumor (both periphery and center) were acquired at 512×512 resolution. Images were quantified with Fiji using customized macros. Briefly, 8-bit gray image stacks were thresholded for fluorescence in the Cy3 and Cy5 channels and the percentages of binary (positive) areas were calculated using the “Measure” function. All the data were plotted with Prism version 8.3.0 (GraphPad, San Diego, CA).

[2] = tested on: syngeneic intracranial GL261 glioma; assay: Confocal microscopy of brain slices of GL261 glioma mice after i.v. dual-labeled liposomes; assay type: in vivo; conditions: 48 h post-injection, EPC/DSPE-PEG2000 liposomes, 0.2% DiI and 0.2% Cy5-DSPE
Procedure: (§1) 4T1 cell line was purchased from the ATCC and verified using a sequencing core. GL261 cells were obtained from the National Cancer Institute (NCI), and CT2A cells were a gift from Dr. Tom Seyfried (Boston College). LY2 cells were from Dr. Sana Karam, University of Colorado Anschutz Medical campus. Cells were grown at 37° C. in RPMI 1640 medium containing 10% heat-inactivated fetal bovine serum, 10 mM HEPES, 100 U/ml penicillin, and […] streptomycin (all from Corning Inc. New York, NY, USA). BALB/c mice were bred in-house. Mice of 8-10 weeks of age (females) were implanted with 0.5×10^6 cells into the mammary fat pad (4T1) or subcutaneously in the jaw region (LY2) and used for experiments 1 week later when tumors reached ˜200-300 mm^3. […]
Nikon Eclipse AR1HD inverted confocal microscope with 405 nm, 488 nm, 561 nm, and 640 nm excitation lasers and corresponding emission filters was used. […] For quantification, multiple random image areas from different slices of the tumor (both periphery and center) were acquired at 512×512 resolution. Images were quantified with Fiji using customized macros. Briefly, 8-bit gray image stacks were thresholded for fluorescence in the Cy3 and Cy5 channels and the percentages of binary (positive) areas were calculated using the “Measure” function. […]

[3] = Plasma fluorescence elimination profile after liposome injection; assay type: in vivo, mice; conditions: 24 h post-injection; DiI/Cy5-DSPE liposomes
Procedure: as §1, with “mm^3. For brain tumors, C57BL/6 mice (6-8 weeks old) were implanted with a total 1×10^5 GL261 or CT-2A cells per animal using an established protocol.” for “mm^3.”
Tumors and livers were placed in a 24-well plate and scanned as described above. […] Mean fluorescence was determined from 8-bit TIFF images using Fiji software by drawing a region of interest around the tumors and using the “Measure” function to determine mean gray values. […] For plasma fluorescence profile, plasma collected at different time points was serially diluted, dotted on a nitrocellulose membrane, scanned as above, and the mean fluorescence of dots was plotted versus time with Prism.

[4] = Lipid extraction of tumors and organs, dye biodistribution; assay type: in vivo, mice; conditions: 48 h post-injection
Procedure: For extraction using a modified Bligh-Dyer method, 50-100 mg tissue was homogenized as described above, 10 parts of chloroform/methanol (2:1) were added to the homogenate (considering that tissue weight is 1 part), and the samples were mixed at 1400 rpm for 2 h at room temperature on Eppendorf Thermomixer. The tubes were centrifuged at 500 g for 10 min. The organic phase (bottom, approximately 80% of the added amount) was carefully collected, dotted on a PVDF membrane and scanned for DiI and Cy5 fluorescence as described above. Different dilutions of liposomes (standard curve) were scanned together with the samples. The percentage of the injected DiI and Cy5 in the extract was calculated from the standard curve and divided by tissue weight. The fluorescence of control non-injected organs was subtracted from that of injected organs. For TLC analysis, the mobile phase consisted of chloroform: methanol (9:1) with 1% trifluoroacetic acid and the samples were run on TLC Silica Gel 60 F254 plates (EMD Millipore).

Q: What does the source list for `CCCCCCCCCCCCCCCCCC(=O)OC[C@H](COP(=O)(O)OCCNC(=O)CCCCCN1C(=CC=CC=CC2=[N+](C)c3ccccc3C2(C)C)C(C)(C)c2ccccc21)OC(=O)CCCCCCCCCCCCCCCCC` [Cy5-DSPE]?
A: extravasation and distribution in tumor [1]: mostly confined to blood vessels; accumulation and spreading in glioma [2]: almost complete absence; dye cleared from the circulation [3]: approximately 80%; tissues with the highest dye amount [4]: highest in the tumor and kidney; dye amount in tumor and organ extracts over time ([4]; tumors, livers, spleens, kidneys, 1 h, 24 h): dropped over time in all the organs
